From patent publication US7351398B2, “Stabilization of radiopharmaceutical compositions using hydrophilic thioethers” (CIS bio international, priority 2000, dated 2008)

Experiments:
[1] = HPLC RCP of 99mTc-labelled depreotide kits with L-methionine; conditions: formulated kits stored under normal conditions (≦−10° C.)
Procedure: Lyophilized kit vials were prepared containing depreotide, L-methionine (Met), and other components as described in Table 3. All formulations were adjusted to pH 7.4 prior to lyophilization.
The lyophilized kits were radiolabelled with ^99mTc by reconstitution with 1.0 mL technetium ^99mTc sodium pertechnetate (Technelite®) containing approximately 50 mCi ^99mTc and heating in a boiling water bath for 10 minutes. Some of the formulations were also radiolabelled in a room temperature preparation (allowed to stand at room temperature 30 minutes following reconstitution).

[2] = HPLC RCP of 99mTc-labelled glycoprotein IIb/IIIa receptor-binding peptide with L-methionine; format: physicochemical
Procedure: L-methionine was tested for its ability to stabilize a ^99mTc-labelled glycoprotein IIb/IIIa receptor-binding peptide having the structure.
Lyophilized kit vials were prepared containing the peptide (50 μg), sodium glucoheptonate dihydrate (10 mg), stannous chloride dihydrate (50 μg), and edetate disodium dihydrate (100 μg). The formulation was adjusted to pH 7.4 prior to lyophilization.
The lyophilized kits were radiolabelled with ^99mTc in the presence and absence of L-methionine. To the Met preparation was added 4 mg methionine (in 100 μL saline) and 100 μL ethanol. To the control preparation was added 100 μL ethanol and 100 μL saline to account for the additional saline or ethanol added with the L-methionine. Both vials were then reconstituted with 1.0 mL technetium ^99mTc sodium pertechnetate (Technelite®) containing approximately 50 mCi ^99mTc and allowed to incubate for 30 minutes at room temperature.

[3] = HPLC RCP of 99mTc-labelled bisamine bisthiol non-peptide chelator with L-methionine; format: physicochemical
Procedure: L-methionine was tested for its ability to stabilize a ^99mTc-labelled non-peptide chelator (4-(butanoic acid)-2,2,9,9 tetramethyl-4,7-diaza-1,10-decanedithiol) having the structure.
The non-peptide chelator was radiolabelled with ^99mTc in the presence and absence of L-methionine using the placebo vial heated preparation procedure as described in Example 6.

[4] = HPLC RCP of 99mTc-labelled benzodiazepinedione derivative kits with L-methionine; format: physicochemical; conditions: formulated kits
Procedure: L-methionine was tested for its ability to stabilize a ^99mTc-labelled glycoprotein IIb/IIIa receptor-binding benzodiazepinedione derivative 1-[(carboxyglycyl-glycyl-glycyl-cysteinamide)methyl]-4-(2-carboxyethyl)-7-[(4-amidinophenyl)methyl]-3,4-dihydro-1H-1,4-benzodiazepine-2,5-dione trifluoroacetate, having the structure.
All formulations were adjusted to pH 7.4 prior to lyophilization.
The lyophilized kits were radiolabelled with ^99mTc by reconstitution with 1.0 mL technetium ^99mTc sodium pertechnetate (Technelite®) containing approximately 50 mCi ^99mTc and heating in a boiling water bath for 10 minutes.

[5] = HPLC RCP of 99mTc-labelled monoamine, diamide, single thiol peptide chelator with L-methionine; format: physicochemical
Procedure: L-methionine was tested for its ability to stabilize a ^99mTc-labelled monoamine, diamide, single thiol peptide chelator having the structure.
Lyophilized kit “placebo” vials were prepared containing sodium glucoheptonate dihydrate, edetate disodium dihydrate, and stannous chloride dihydrate at the concentrations set forth in Table 1 (control formulation).
The peptide chelator was radiolabelled with ^99mTc in the presence and absence of L-methionine. The peptide chelator was dissolved in water at a concentration of 1 mg/mL, and 50 μg (50 μL) of the peptide was added to each of three placebo vials. Ethanol and L-methionine were added to the control and methionine preparations as described in Example 5. In addition, 100 μL phosphate buffered saline (PBS) was added to each preparation. The vials were reconstituted with 0.9-1.0 mL ^99mTc sodium pertechnetate (Technelite®) containing approximately 50 mCi ^99mTc, and heated in a boiling water bath for ten minutes.

[6] = HPLC RCP of 99mTc-labelled depreotide kits with L-methionine after accelerated temperature (40° C.) kit storage; format: physicochemical; conditions: lyophilized kits stored at 40° C. prior to radiolabelling
Procedure: Lyophilized kits were prepared containing depreotide, L-methionine (Met), and other components as described in Table 5. All formulations were adjusted to pH 7.4 prior to lyophilization. The kits were stored for one week at 40° C. Some kits were also stored at −10° C. as controls.
The lyophilized kits were radiolabelled with ^99mTc by reconstitution with 1.0 mL technetium ^99mTc sodium pertechnetate (Technelite®) containing approximately 50 mCi ^99mTc and incubation in a boiling water bath (10 min).

[7] = HPLC RCP of 99mTc-labelled depreotide with hydrophilic thioether additives; format: physicochemical; conditions: for 3.5 hr RCP / 6.5 hr RCP / Initial RCP: 99mTc-depreotide kit, additive 4 mg in 100 μL, heated
Procedure: [drawing 16] These compounds and L-methionine were tested for their ability to stabilize ^99mTc-labelled depreotide. Each hydrophilic thioether was dissolved in water made up at 40 mg/mL and adjusted to pH 7 with HCl or NaOH. Each hydrophilic thioether (4 mg in 100 μL) was added to a formulated kit vial containing the peptide (“control” formulation in Table 1). To the control vials were added 100 μL water.

[8] = Radiochemical purity (RCP) by reversed phase HPLC of 99mTc-labelled depreotide kits with gentisic acid; format: physicochemical; conditions: included in formulated kits
Procedure: Lyophilized kit vials were prepared containing depreotide, GA, and other components as described in Table 1. Formulations were adjusted to pH 7.4 or 8.5 (as noted) prior to lyophilization.

Row | SMILES | 3.5 hr RCP [7] [%] | 6.5 hr RCP [7] [%] | Initial RCP [7] [%] | Effect on radiolabelling yield and stability of 99mTc-labelled peptide (depreotide) [7] | other results
1 | CSCC[C@H](N)C(=O)O [L-methionine] | 90.4 | 89.3 | 95 | – | Effect on radiolabelling yield and stability of 99mTc-depreotide [1]: increases; Effect on radiolabelling yield and stability of the 99mTc-peptide [2]: increases; HPLC RCP (%) 0.5 hr ([2]; 99mTc-GPIIb/IIIa peptide, 4 mg methionine or none, room temperature 30 min, 0.5 hr): 96.7%; HPLC RCP (%) 3.5 hr ([2]; 99mTc-GPIIb/IIIa peptide, 4 mg methionine or none, room temperature 30 min, 3.5 hr): 96.9%; HPLC RCP (%) 6.5 hr ([2]; 99mTc-GPIIb/IIIa peptide, 4 mg methionine or none, room temperature 30 min, 6.5 hr): 96.2%; Effect on radiolabelling yield and stability of 99mTc-labelled non-peptide chelator [3]: increases; HPLC RCP (%) 0.5 hr ([3]; 99mTc-non-peptide chelator, 4 mg methionine or none, heated, 0.5 hr): 66.7%; HPLC RCP (%) 3 hr ([3]; 99mTc-non-peptide chelator, 4 mg methionine or none, heated, 3 hr): 70.0%; HPLC RCP (%) 6 hr ([3]; 99mTc-non-peptide chelator, 4 mg methionine or none, heated, 6 hr): 70.8%; HPLC RCP (%) 9 hr ([3]; 99mTc-non-peptide chelator, 4 mg methionine or none, heated, 9 hr): 70.4%; Effect on radiolabelling yield and stability of 99mTc-labelled benzodiazepinedione derivative [4]: increases; Effect on radiolabelling yield and stability of 99mTc-labelled peptide chelator [5]: increases; HPLC RCP (%) 0.5 hr ([5]; 99mTc-peptide chelator, 4 mg L-methionine or none, heated, 0.5 hr): 98.4%; HPLC RCP (%) 3 hr ([5]; 99mTc-peptide chelator, 4 mg L-methionine or none, heated, 3 hr): 97.2%; HPLC RCP (%) 6 hr ([5]; 99mTc-peptide chelator, 4 mg L-methionine or none, heated, 6 hr): 95.5%; HPLC RCP (%) 9 hr ([5]; 99mTc-peptide chelator, 4 mg L-methionine or none, heated, 9 hr): 92.8%; Stabilization of 99mTc-depreotide [6]: does not stabilize
2 | C[S+]([O-])CC[C@H](N)C(=O)O (stereo partly drawn) [Methionine sulfoxide, reference compound] | – | – | – | no effect | –
3 | O=C(O)c1cc(O)ccc1O [gentisic acid, Gentisic acid] | – | – | – | – | Effect on radiolabelling yield and stability of 99mTc-depreotide [8]: decreases
4 | CSCC(O)CO (stereo not drawn) [3-Methylthio-1,2-propanediol, 3-methylthio-1,2-propanediol] | 84 | 80.9 | 89.1 | increase | –
5 | CSCC[C@H](N)CO [Methioninol, methioninol] | 93.9 | 90.7 | 94.1 | increase | –
6 | CS(=O)(=O)CC[C@H](N)C(=O)O [methionine sulfone, reference compound] | – | – | – | no effect | –
7 | CCSCCN [2-(Ethylthio)ethylamine] | 94.2 | 93.3 | 92.8 | increase | –
8 | CSCCC=O [3-(methylthio)propionaldehyde, reference compound] | – | – | – | no effect | –
